The results in this text go back to paper PMC12930396, “Positive modulators of N-methyl-D-aspartate receptor: structure–activity relationship study on steroidal C-17 and C-20 oxime ethers” (RSC Advances, 2026).

One data set is described as follows: in vitro. Particulars: pH 7.4. The method, then: The reactions were terminated by the addition of four volumes of ice-cold methanol, mixed vigorously, and left at −20 °C for 1h. After that, the samples were centrifuged and the supernatants were analysed by means of ECHO-MS® System (Sciex, Framingham, MA, USA). Zero time points were prepared by adding ice-cold methanol to the mixture of the compound with cofactors before the addition of microsomes. […] Intrinsic clearance (CLint) was calculated using the following formula: [drawing 4] where V is the incubation volume per milligram of microsomal protein (µL mg^−1) and t1/2 is the microsomal half-life.

Data set [1] can be described thus: Thermodynamic solubility in PBS pH 7.4. It counts as physicochemical. The following applies: PBS pH 7.4, 20 °C, 24 h. Here is the method:
The reference samples were prepared as follows: a weight corresponding to 2.5 µmol was dissolved in 250 µL of DMSO, resulting in a concentration of 10 mM stock solution. Each calibration level standard was prepared by diluting the stock solution in a mixture of PBS and acetonitrile (50 : 50 v/v). The samples for testing were prepared as follows: the volume of 1000 µL of PBS was added to the testing tube containing a weight of sample corresponding to 0.4 mM. The mixture was shaken at 1000 rpm at 20 °C for 24 h. The mixture was then filtered using a syringe polypropylene 0.45 µm filter. Samples and calibration standards are prepared using an automated system of a robotic arm (PAL-RTC, Switzerland). Then, the sample was analysed on chromatographic system (Vanquish UHPLC, Thermo Fisher Scientific, Germany) connected to the diode array detector and consequently to the charged aerosol detector (both Vanquish, Thermo Fisher Scientific, Germany), Thermo Scientific Accucore C8 (100 × 3 mm; 2.6 µm) column, using gradient elution with acetonitrile/methanol/5 mM formate buffer (pH = 3.00); flow: 1.0 cm^3 min^−1; column temperature: 40 °C; CAD temperature: 30 °C; sample volume: 5 mm^3.

A further data set concerns the target T1, GluN1/GluN2B receptors (Rattus norvegicus, UniProt P35439+Q00960).
T1 construct: expressed in transfected cells; host or cells: HEK293 cells (ATCC No. CRL-1573)
Put plainly: Patch-clamp: modulation of glutamate-induced currents of recombinant GluN1/GluN2B receptors expressed in HEK293 cells. It is filed as cell-based. Here is the method:
To investigate the effect of compounds 11–23 on the activity of NMDARs, electrophysiological measurements were performed on HEK293 cells that were co-transfected with cDNAs containing genes encoding for the rat GluN1-1a and GluN2B subunits. The degree of modulation (E; potentiation/inhibition) for the newly synthesized compounds was determined using the following formula: [drawing 1] where Ie is the value of the current amplitude during glutamate and compound coapplication, and Ia is the current amplitude value for glutamate application. […] The results are presented as mean ± standard error of the mean (SEM), with n equal to the number of independent measurements. One-way analysis of variance (ANOVA) was used for multiple comparisons (unless otherwise stated, a value of P ≤ 0.05 was used for the determination of significance).
We have evaluated the relationship between oxime derivatives 11–23 and their modulatory effect on recombinant GluN1/GluN2B receptors. Due to the […] effect of neurosteroid-based PAMs at NMDARs[20,44]
HEK293 cells (American Type Culture Collection, ATCC No. CRL-1573, Rockville, MD, USA) were cultured in Opti-MEM I (Invitrogen, Carlsbad, CA, USA) supplemented with 5% fetal bovine serum (FBS; PAN Biotech, Aidenbach, Germany) at 37 °C in 5% CO2. 24 h before transfection, HEK293 cells were plated in 24-well plates at a density of 2 × 10^5 cells per well. The next day, the cells were transfected with cDNA encoding rat GluN1-1a (GluN1; GenBank accession number U08261)[56] and GluN2B (GenBank accession number M91562)[57] subunits (in the pCI-neo expression vector), along with green fluorescent protein (GFP; in the pQBI 25 vector, Takara, Tokyo, Japan). Briefly, equal amounts (200 ng) of cDNAs encoding GluN1-1a, GluN2B, and GFP were mixed with 0.6 µl of Matra-A reagent (IBA, Gottingen, Germany) in 50 µL of Opti-MEM I and added to confluent HEK293 cells cultured in 24-well plates. After trypsinization, the cells were resuspended in Opti-MEM I containing 1% FBS, supplemented with 20 mM MgCl2, 1 mM D,L-2-amino-5-phosphonovaleric acid, 3 mM kynurenic acid, and 1 µM ketamine, and plated on 30 mm glass coverslips coated with collagen and poly-L-lysine. Transfected cells were identified by GFP epifluorescence. Electrophysiology experiments were performed 24–48 h after transfection.
Whole-cell current recordings, voltage-clamped at a holding potential of −60 mV, were performed at room temperature using a patch-clamp amplifier (Axopatch 200B; Molecular Devices, Sunnyvale, CA, USA) after capacitance and series resistance (<10 MΩ) compensation (80–90%). NMDAR current responses were low-pass filtered at 2 kHz, digitally sampled at 5 kHz, and analysed using pClamp software (version 10.6; Molecular Devices). Patch pipettes (3–5 MΩ), pulled from borosilicate glass, were filled with an intracellular solution (ICS) containing (in mM): 15 CsCl, 10 BAPTA, 3 MgCl2, 1 CaCl2, 120 gluconic acid, 10 HEPES, and 2 ATP-Mg salt (pH adjusted to 7.2 with CsOH). The extracellular solution (ECS) contained (in mM): 160 NaCl, 2.5 KCl, 0.2 EDTA, 10 glucose, 10 HEPES, and 0.7 CaCl2 (pH adjusted to 7.3 with NaOH). NMDAR responses were induced by 1 µM glutamate and 30 µM glycine. 1% DMSO was present in all control and testing solutions. Solution applications were performed using a microprocessor-controlled multibarrel fast-perfusion system with a solution exchange rate around the cells of ∼10 ms.[58]
Background: The patch-clamp technique gives a direct electrical read-out from membranes.

T1 sequence (Q00960 27-1482, other chains not shown): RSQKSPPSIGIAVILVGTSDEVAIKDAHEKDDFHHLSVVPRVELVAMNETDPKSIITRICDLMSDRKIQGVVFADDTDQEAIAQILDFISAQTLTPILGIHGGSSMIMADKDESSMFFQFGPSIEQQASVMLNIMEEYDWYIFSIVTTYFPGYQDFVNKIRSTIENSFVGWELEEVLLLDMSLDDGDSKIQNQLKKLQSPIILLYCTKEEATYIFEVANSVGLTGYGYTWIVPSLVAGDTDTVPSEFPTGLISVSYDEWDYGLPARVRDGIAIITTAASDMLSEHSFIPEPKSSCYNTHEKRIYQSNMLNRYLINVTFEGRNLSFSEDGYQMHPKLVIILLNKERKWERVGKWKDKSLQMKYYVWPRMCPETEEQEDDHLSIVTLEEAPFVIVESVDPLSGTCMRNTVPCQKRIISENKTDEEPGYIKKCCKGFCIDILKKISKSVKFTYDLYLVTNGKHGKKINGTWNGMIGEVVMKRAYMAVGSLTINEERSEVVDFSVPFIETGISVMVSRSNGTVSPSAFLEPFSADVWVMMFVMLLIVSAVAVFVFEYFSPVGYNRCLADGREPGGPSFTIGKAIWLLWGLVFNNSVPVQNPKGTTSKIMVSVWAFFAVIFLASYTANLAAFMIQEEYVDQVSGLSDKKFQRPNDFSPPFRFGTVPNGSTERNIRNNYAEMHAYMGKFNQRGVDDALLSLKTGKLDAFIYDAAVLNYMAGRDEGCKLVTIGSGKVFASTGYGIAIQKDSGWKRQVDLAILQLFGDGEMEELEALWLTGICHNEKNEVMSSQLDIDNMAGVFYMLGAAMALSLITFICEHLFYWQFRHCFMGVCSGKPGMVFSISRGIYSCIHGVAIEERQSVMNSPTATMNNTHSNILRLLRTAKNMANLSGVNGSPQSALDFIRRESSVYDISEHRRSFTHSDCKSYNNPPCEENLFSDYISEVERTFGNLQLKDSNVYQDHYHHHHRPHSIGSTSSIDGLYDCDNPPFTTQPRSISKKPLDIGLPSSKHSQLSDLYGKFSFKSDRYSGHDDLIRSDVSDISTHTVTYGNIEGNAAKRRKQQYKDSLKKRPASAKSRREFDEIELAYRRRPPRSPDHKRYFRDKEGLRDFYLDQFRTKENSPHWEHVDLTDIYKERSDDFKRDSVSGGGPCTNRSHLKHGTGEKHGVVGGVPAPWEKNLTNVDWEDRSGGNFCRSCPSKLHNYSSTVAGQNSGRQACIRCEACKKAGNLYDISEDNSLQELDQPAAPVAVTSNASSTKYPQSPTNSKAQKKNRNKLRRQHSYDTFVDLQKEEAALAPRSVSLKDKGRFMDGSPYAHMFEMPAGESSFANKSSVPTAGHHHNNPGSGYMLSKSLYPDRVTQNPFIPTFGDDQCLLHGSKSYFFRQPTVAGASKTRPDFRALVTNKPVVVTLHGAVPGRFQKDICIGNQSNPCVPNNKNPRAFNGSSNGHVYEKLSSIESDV

The half-life is the time needed for the level to fall by half in the phase considered. Higher therefore signals slow loss. By solubility (thermodynamic) is commonly meant the concentration in solution at equilibrium with solid. The EC50 is the concentration giving half of the maximal effect. The Emax is the maximal effect, on the per cent scale that the assay sets. For `CCON=C(C)C1CCC2C3CC=C4CC(OC(=O)CCCC(=O)O)CCC4(C)C3CCC12C` (stereo not drawn) [Compound 12, 20-Oxo-pregn-5-en-3β-yl hemiglutarate O-ethyloxime], the “Metabolic stability in rat liver microsomes” value in the data set “in vitro” (1 h, 10 µM) is listed as “no detectable metabolism after 60 min”. Further, the half-life at 10 µM in “in vitro” (rat, microsomes) is more than 1 h. In data set [1], the “Solubility PBS, pH 7.4 (thermodynamic)” value is reported as 361 ± 41 µM. In data set [1] (PBS, 20 °C, pH 7.4, aqueous buffer, thermodynamic from solid, read-out: Solubility PBS, pH 7.4 (thermodynamic)), the thermodynamic solubility at 24 h is more than 350 µM. At GluN1/GluN2B receptors (Emax compared with PES), the “Efficacy relative to PES” value was “over 6 fold”. Also, the “h ± SEM (apparent Hill coefficient)” value at GluN1/GluN2B receptors (concentration-response fit, mean ± SEM) was 1.7 ± 0.3. Further, at GluN1/GluN2B receptors (half-maximal potentiation of currents evoked by 1 µM glutamate, HEK293, mean ± SEM), the EC50 was determined as 8.7 ± 1.1 µM. Besides, the Emax on GluN1/GluN2B receptors (maximal potentiation of currents evoked by 1 µM glutamate and 30 µM glycine, HEK293, mean ± SEM) amounted to 673 ± 121%.
